Experimental data published in PMC3828334, “Tumor Cell Death Mediated by Peptides That Recognize Branched Intermediates of DNA Replication and Repair” (PLoS ONE, 2013).
Where “and” joins values, the source holds several entries; their conditions need not be identical. Equal entries are not always repeated. Positions of bridges follow the written chain, without caps; N, C: chain ends. Non-standard residues stand in square brackets, D forms with d. Residues, ends and D or L forms follow the SMILES beside them. Chains are numbered I, II in the order given.

Tests used:
PC3 cells [1] = experiment: Cell cycle analysis (PI, flow cytometry); format: cell-based; conditions: PC3, 200 µM, 48 h or 72 h, 2 independent experiments; DMSO 14%
Method: 600,000 PC3 cells were plated in 60-mm dishes at a concentration of 200,000 cells/ml and allowed to attach before they were serum-starved for 48 h by adding RPMI with no supplemented FBS. The cells were then treated in 100, 150 or 200 µM wrwycr in RPMI supplemented with 10% FBS for either 48 h or 72 h followed by permeabilization with cold 70% ethanol overnight. RNase/PI solution (BD Pharmingen) were added to the cells following the protocol in [33] and incubated for 2.5 h at 37°C and analyzed using the PerCP-Cy5-5 channel in a FACS Canto flow cytometer. The results were analyzed using Flow-Jo software.

[2] = tested on: GRP78 promoter in HeLa cells; experiment: Luciferase reporter assay for ER stress; format: cell-based; conditions: 24 h
Method: HeLa cells were transfected with either either 15 µg of plasmid DJT208, carrying the GRP78 promoter (pGRP78) driving the ER-stress response elements ERSE 1, ERSE 2 and ERSE 3 upstream of the luciferase gene, or 15 µg of the plasmid GL2P, carrying the luciferase gene driven by the SV40 promoter (pSV40). All cells were also co-transfected with 10 µg of the PB1 plasmid, carrying the β-galactosidase reporter transcribed by the SV40 promoter, as a transfection control. [The plasmids were generous gifts from Dr. Peter Belmont from Christopher Glembotski's Lab in SDSU]. After 24 h the cells were treated with increasing concentrations of wrwycr (100, 150 and 200 µM) for 24 h and the luciferase activity was measured using an OptocompII Luminometer. Tunicamycin (TM), a known inducer of ER stress, was used as a positive control for the experiment ER stress was calculated as the fold increase of luciferase gene expression from the GRP78 promoter over that from the SV40 promoter of pGL2P for the different concentrations of the peptide over DMSO, which is the solvent for the peptide, or over the media in the case of TM.

γH2AX in PC3 cells = experiment: γH2AX foci by microscopy and flow cytometry; format: cell-based; conditions: PC3, 200 µM, flow cytometry
Method: DAPI (5 μg/ml) was used to stain the nucleus. The stained cells on the coverslips were mounted on the glass slides and observed with a Zeiss inverted microscope with AxioVision 4.8 software and using the 100× magnification. Foci of 53BP1 were counted manually and the average number of foci per cell was calculated. […] They were subsequently treated with either 50-200 μM […] or 50-100 μM […] or 0.5-1 μM doxorubicin or combination treatment for 0, 12, 24, 36 and 48 h. […] Samples were analyzed using a Becton Dickinson FACS Canto flow cytometer at a forward scatter voltage of 25 V, side-scatter voltage of 400 V, and FITC channel at a voltage of 400 V.

PC3 cells [3] = conditions: 48 h
Method: 20,000 PC3 cells were plated overnight in 96 well plates (Costar) at a concentration of 200,000 cells/ml. They are treated with the peptides, doxorubicin, docetaxel alone, or in combination for different time period incubation and the cell viability was determined by MTT assay as described. The percentage survival of the cells with different treatments was calculated using DMSO-vehicle control-treated cells as the standard.

PC3 cells [4] = experiment: TUNEL assay, PC3; format: cell-based; conditions: PC3, 150 µM, 48 h
Method: (§1) 600,000 PC3 cells or 500,000 HeLa cells were plated in 60-mm dishes or 6-well plates respectively to allow them to attach overnight at 37°C with 5% CO2. PC3 cells were subsequently treated with appropriate treatments for 24, 36 and 48 h while HeLa cells were treated with 1 µl of either the caspase inhibitor z-VAD-fmk or z-FA-fmk (both from Biovision), containing appropriate treatments, for 24 h. The cells were fixed with 4% paraformaldehyde for 30 min and permeabilized with 0.1% Triton X-100 in 0.1% sodium citrate buffer for 3 mins. Labeled dUTP were added along with the terminal deoxynucleotidyl transferase dUTP nick end labeling (TUNEL) (TUNEL kit from Roche) as described in the kit. Samples were analyzed using a Becton Dickinson FACS Canto flow cytometer as specified above.

Chk2 in PC3 cells = experiment: Phospho-Chk2 by flow cytometry; format: cell-based; conditions: PC3, 50 µM wrwycr on its own, 48 h
Method: They were subsequently treated with either 50-200 μM […] or 50-100 μM […] or 0.5-1 μM doxorubicin or combination treatment for 0, 12, 24, 36 and 48 h. […] Samples were analyzed using a Becton Dickinson FACS Canto flow cytometer at a forward scatter voltage of 25 V, side-scatter voltage of 400 V, and FITC channel at a voltage of 400 V.

PC3 cells [5] = experiment: Live/Dead assay by flow cytometry, PC3; format: cell-based; conditions: ± standard error, at least 4 replicates
Method: PC3 or HeLa cells were seeded at 400,000 or 500,000 cells per well respectively in 6-well tissue culture plates (BD Falcon) and allowed to attach overnight at 37°C with 5% CO2. The cells were incubated with different concentrations of d-wrwycr for 24 or 48 h respectively before the cells were lifted off from the plate. Cell pellets were resuspended in 200 µl of dye […] protocol (Live/dead cytotoxicity kit for mammalian cells, Invitrogen and reference). Data were collected in BDFacs Canto and analyzed using FACSDiva software (Becton-Dickenson).

HeLa cells = experiment: TUNEL assay, HeLa, with z-VAD-fmk or z-FA-fmk; format: cell-based; conditions: 24 h
Method: as §1

DuPro-1 cells = format: cell-based; conditions: MTT, DuPro-1 cells, 48 h
LnCAP cells = format: cell-based; conditions: 48 h

## N=C(N)NCCC[C@@H](NC(=O)[C@@H](CSSC[C@@H](NC(=O)[C@@H](Cc1ccc(O)cc1)NC(=O)[C@@H](Cc1c[nH]c2ccccc12)NC(=O)[C@@H](CCCNC(=N)N)NC(=O)[C@H](N)Cc1c[nH]c2ccccc12)C(=O)N[C@H](CCCNC(=N)N)C(N)=O)NC(=O)[C@@H](Cc1ccc(O)cc1)NC(=O)[C@@H](Cc1c[nH]c2ccccc12)NC(=O)[C@@H](CCCNC(=N)N)NC(=O)[C@H](N)Cc1c[nH]c2ccccc12)C(N)=O [wrwycr, Trp-Arg-Trp-Tyr-Cys-Arg] (I: H-[dW][dR][dW][dY][dC][dR]-NH2 / II: H-[dW][dR][dW][dY][dC][dR]-NH2; disulfide I:5-II:5; N-terminus assumed)
PC3 cells [1]
  percentage of the S phase cellular population: 50%
[2]; 100 µM, ER stress as fold increase GRP78 promoter over SV40 promoter
  pGRP78/pSV40: 0.84±0.1
[2]; 150 µM
  pGRP78/pSV40: 1.02±0.44
[2]; 200 µM
  pGRP78/pSV40: 0.87±0.06
[2]; 100–200 µM
  induction of expression of the GRP78 promoter: did not induce expression of the GRP78 promoter
γH2AX in PC3 cells; after 36–48 h
  γH2AX positive cells: 20–35%
γH2AX in PC3 cells; between 12–24 h
  γH2AX positive cells: 2–5%
PC3 cells [3]
  IC50: 100 µM
PC3 cells [4]
  TUNEL positive cell population: 65%
Chk2 in PC3 cells
  cells with activated Chk2: About 5%
PC3 cells [5]; 100 µM wrwycr, calcein AM
  PC3 population %Live: 64.9±2.5%
PC3 cells [5]; 100 µM wrwycr, propidium iodide permeable
  PC3 population % Dead: 33.4±2.0%
PC3 cells [5]; 150 µM wrwycr
  PC3 population % Dead: 33.8±0.6%
  PC3 population %Live: 64.4±0.9%
PC3 cells [5]; 200 µM wrwycr
  PC3 population % Dead: 40.6±4.8%
  PC3 population %Live: 58% and 57.7±4.7%
HeLa cells; 100 µM wrwycr
  TUNEL-positive cells: 13%
HeLa cells
  TUNEL positive cells with caspase inhibitor z-VAD-fmk versus mock inhibitor z-FA-fmk: No significant difference
DuPro-1 cells
  IC50: the same IC50 as the PC3 cell line
LnCAP cells
  IC50: 100 to 150 µM
